Data as given in ChEMBL document CHEMBL1142910, “Enzymatic and cellular study of a serotonin N-acetyltransferase phosphopantetheine-based prodrug” (2007).

Columns and labels:
[1] = molecular target: Serotonin N-acetyltransferase (Rattus norvegicus) (UniProt Q64666); test: Activity of AANAT assessed as conversion of bis-pivaloyloxymethylene-tryptamine-phosphopantetheine to tryptamine phosphopantetheine in rat pinealocytes at […]; assay type: cell-based; conditions: TDE = time-dependent effect
[2] = molecular target: Serotonin N-acetyltransferase (Rattus norvegicus) (UniProt Q64666); test: Inhibition of norepinephrine-stimulated AANAT activity assessed per 10^5 cells in rat pinealocytes at 10 uM; assay type: cell-based
[3] = Inhibition of norepinephrine-stimulated melatonin production assessed per 10^5 cells in rat pinealocytes at 10 uM by radioimmunoassay; assay type: functional
[4] = molecular target: Serotonin N-acetyltransferase (Rattus norvegicus) (UniProt Q64666); test: Activity of AANAT assessed as conversion of bis-pivaloyloxymethylene-tryptamine-phosphopantetheine to tryptamine phosphopantetheine in rat pinealocytes after 60 mins; assay type: cell-based
[5] = Inhibition of norepinephrine-stimulated melatonin production assessed per 10^5 cells in rat pinealocytes at 50 uM by radioimmunoassay; assay type: functional
[6] = molecular target: Serotonin N-acetyltransferase (Rattus norvegicus) (UniProt Q64666); test: Inhibition of norepinephrine-stimulated AANAT activity assessed per 10^5 cells in rat pinealocytes at 50 uM; assay type: cell-based

Sequence of Serotonin N-acetyltransferase (Rattus norvegicus) (Q64666 whole entry): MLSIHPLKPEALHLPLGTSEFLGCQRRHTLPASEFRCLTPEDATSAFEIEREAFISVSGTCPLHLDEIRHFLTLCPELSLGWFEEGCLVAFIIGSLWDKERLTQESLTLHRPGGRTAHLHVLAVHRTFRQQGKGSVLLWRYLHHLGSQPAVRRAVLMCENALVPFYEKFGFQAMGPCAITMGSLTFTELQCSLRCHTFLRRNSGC

SMILES: CC(C)(C)C(=O)OCOP(=O)(OCOC(=O)C(C)(C)C)OCC(C)(C)[C@@H](O)C(=O)NCCC(=O)NCCSCC(=O)NCCc1c[nH]c2ccccc12
- Activity [1]: tde
- Activity [2]: 2.2 nmol/h
- Inhibition [3]: 9 pmol
- Activity [4]: 40%
- Inhibition [5]: 5.7 pmol
- Activity [6]: 1.6 nmol/h
